The text below walks through data of patent US20150136150A1, “DURABLE SKIN MARKING COMPOSITIONS” (OP-MARKS, INC., priority 2011, published 2015).

A short description of series [1]: Solvent miscibility and compatibility with octyl cyanoacrylate. The series is classed as physicochemical. Particulars: 3 ml solvent + 3 ml OCA. Also on record: key: V = slightly viscous; VV = viscous; VVV = very viscous; Lyr = layers; Pl = pale; Lt = light; Y = yellow; RX = reacts; Gry = grey; Brn = brown; Blk = black. How it is done: (§1) Next, the solvents were tested for miscibility and compatibility with cyanoacrylate esters. Briefly, beginning with 3 ml samples each of butyl cyanoacrylate (BCA), octyl cyanoacrylate (OCA) and ethoxyethyl cyanoacrylate (EECA), 3 ml of each solvent was added drop-wise to each cyanoacrylate sample and agitated to aid mixing. Observations of the samples were taken immediately and then at regular intervals over 7 days. […] The remaining 10 solvents were ranked according to their compatibility with the cyanoacrylate esters based primarily on their compatibility with BCA over 7 days, secondarily on their compatibility with OCA, and finally on their miscibility with EECA.

Series [2] in a line: Solvent compatibility with viscosity-increasing polymer, viscosity of solution: MMA. Details: unit not given here. The series is classed as physicochemical. Particulars: polymer added at 5% by weight, up to 3 days agitation.
The nature of series [3]: Solvent compatibility with viscosity-increasing polymer, viscosity of solution: CAB. Details: unit not given here. The series is classed as physicochemical. The settings on record: polymer added at 5% by weight, up to 3 days agitation.
The conditions of series [4]: relative volatility compared to butyl acetate; cited from earlier work.
The conditions of series [5]: cited from earlier work.
The nature of series [6]: Solvent miscibility and compatibility with butyl cyanoacrylate. The series is classed as physicochemical. Also on record: key: V = slightly viscous; VV = viscous; VVV = very viscous; Lyr = layers; Pl = pale; Lt = light; Y = yellow; RX = reacts; Gry = grey; Brn = brown; Blk = black. The settings on record: 3 ml solvent + 3 ml BCA. How it is done: as §1
Series [7] is described as follows: Solvent miscibility and compatibility with ethoxyethyl cyanoacrylate. Particulars: 3 ml solvent + 3 ml EECA. The series is classed as physicochemical. The method, then: as §1
A short description of series [8]: Solvent miscibility and compatibility with cyanoacrylate esters (overall). The series is classed as physicochemical. The settings on record: observations over 7 days. The method, then: as §1
Series [9] relates to rat. Particulars: cited from earlier work.
Series [10] can be described thus: Solvent compatibility with viscosity-increasing polymer, viscosity of solution: VEE. The series is classed as physicochemical. Also on record: unit not given here. Particulars: polymer added at 5% by weight, up to 3 days agitation.
Series [11] can be described thus: Solvent compatibility with viscosity-increasing polymer, viscosity of solution: IB. The series is classed as physicochemical. Particulars: for Dissolution of polyisobutylene: 5% by weight, up to 3 days; for Viscosity of solution with IB: polymer added at 5% by weight, up to 3 days agitation.
A short description of series [12]: Colorant solubility in solvent. The settings on record: for PPM dye soluble: 10 g solvent added to 0.4 g D&C Violet #2, shaken 30 minutes, stood 30 minutes; for Dye solubility, suitability: D&C Violet #2. How it is done: For the remaining solvents, colorant solubility was assessed in terms of the solubility of D&C Violet #2. Briefly, 10 g of each of the solvents listed in Table 5 was added to 0.4 g of dye in 12 ml test tubes. The samples were shaken for 30 minutes then allowed to stand for 30 minutes. After standing, 5 ml of the top layer was removed and weighed into pre-weighed aluminum weigh boats where the solvent was allowed to evaporate before re-weighing.

Series [13] can be described thus: Solvent compatibility with viscosity-increasing polymer, viscosity of solution: Cap. The series is classed as physicochemical. Particulars: polymer added at 5% by weight, up to 3 days agitation.

Where “and” joins values, the source holds several entries; their conditions need not be identical. Identical values can stand only once. Like-named read-outs stand apart in the source and are kept apart here.

Consider `C1COCCO1` [1,4 Dioxane], for which the “OCA compatibility, 7 Day” value in series [1] is recorded as “VVV”. For the same compound, the “Viscosity of solution with MMA” value in series [2] stood at 17. The “Viscosity of solution with CAB” value in series [3] was 6.9. In series [4], the “VL (volatility)” value is listed as 2.7. In [5] (at 20 ° C.), the “VP (vapor pressure)” value is 27@20 mmHg.

Consider `CC(=O)C(C)C` [3-Methyl 2-butanone], for which, in series [6], the “BCA compatibility, 1 Day” value is given as “Gry”; the “BCA compatibility, 2 Day” value was “Blk”; the “BCA compatibility, 7 Day” value is “Blk”. In series [1], the “OCA compatibility, 1 Day” value is “VV”; the “OCA compatibility, 2 Day” value is “VV”; the “OCA compatibility, 7 Day” value is on record as “VV”. Moreover, in series [7], the “EECA compatibility, 1 Day” value was “LtBrn”; the “EECA compatibility, 2 Day” value is reported as “LtGry”; the “EECA compatibility, 7 Day” value is listed as “LtGry”. Also, the “Reaction with the cyanoacrylate esters” value in series [8] was “apparent reactions”. For the same compound, the “VL (volatility)” value in series [4] is listed as 2.9. Moreover, in series [9] (oral dose administered to rat), the “TOX (toxicity, LD50)” value is 3078 mg/kg. Also, in series [5] (at 20 ° C.), the “VP (vapor pressure)” value is 42@20 mmHg.

For the compound `CC(C)=O` [Acetone], in series [6], the “BCA compatibility, 2 Day” value is “V” and the “BCA compatibility, 7 Day” value is on record as “VV”. In addition, in series [8], the “Reaction with the cyanoacrylate esters” value is listed as “apparent reactions”. In addition, the “Viscosity of solution with MMA” value in series [2] is 2.4. Besides, the “Viscosity of solution with CAB” value in series [3] is on record as 1.8. Further, the “VL (volatility)” value in series [4] is reported as 7.7. Further, the “VP (vapor pressure)” value in series [5] (at 39.5 ° C.) is given as 400@39.5 mmHg.

Turning to `CCC(C)=O` [Butanone], in series [1], the “OCA compatibility, 1 Day” value was “V”; the “OCA compatibility, 2 Day” value is on record as “VV”; the “OCA compatibility, 7 Day” value is “VV”. Also, the “Viscosity of solution with MMA” value in [2] is 4.5 and 4.2. For the same compound, the “Viscosity of solution with CAB” value in [3] is 1.8. In series [4], the “VL (volatility)” value is recorded as 2.7. Moreover, the “TOX (toxicity, LD50)” value in [9] (oral dose administered to rat) is 2737 mg/kg. Also, the “VP (vapor pressure)” value in series [5] (at 60 ° C.) is 400@60 mmHg.

Turning to `C1CCCCC1` [Cyclohexane], in [1], the “OCA compatibility, 1 Day” value is given as “V”; the “OCA compatibility, 2 Day” value is on record as “VV”; the “OCA compatibility, 7 Day” value is “VV”. Further, in series [7], the “EECA compatibility, 1 Day” value was found to be 2Lyr; the “EECA compatibility, 2 Day” value is 2Lyr; the “EECA compatibility, 7 Day” value was found to be 2Lyr; the “EECA compatibility, Time 0” value amounted to 2Lyr. In addition, the “Viscosity of solution with VEE” value in series [10] is recorded as 4.5. Besides, in [11], the Dissolution of polyisobutylene result is reported as “partially dissolve” and the “Viscosity of solution with IB” value amounted to 59. Besides, in series [12], the PPM dye soluble worked out at 600 PPM and the “Dye solubility, suitability” value is on record as “insufficient dye solubility”. In [4], the “VL (volatility)” value was 2.6. In [9] (rat, in vivo, po), the “TOX (toxicity, LD50)” value is 12705 mg/kg. Also, the “VP (vapor pressure)” value in [5] (at 20 ° C.) is 95@20 mmHg.

On to `CCOC(C)=O` [Ethyl acetate], for which, in series [1], the “OCA compatibility, 2 Day” value is “V?” and the “OCA compatibility, 7 Day” value is “VV”. Besides, the “Viscosity of solution with MMA” value in series [2] was determined as 4.7. In series [3], the “Viscosity of solution with CAB” value amounted to 2.3. The compound further showed a PPM dye soluble in series [12] of 3400 PPM. Besides, in series [4], the “VL (volatility)” value is reported as 6. The “TOX (toxicity, LD50)” value in [9] (oral dose administered to rat) is 5620 mg/kg.

`CCCCCCC` [Heptane]: in series [6], the “BCA compatibility, 1 Day” value was “PlY”; the “BCA compatibility, 2 Day” value is given as “LtY”; the “BCA compatibility, 7 Day” value is reported as “LtY”. Further, in series [1], the “OCA compatibility, 2 Day” value is given as “VV” and the “OCA compatibility, 7 Day” value is given as “VV”. In [7], the “EECA compatibility, 1 Day” value amounted to 2Lyr; the “EECA compatibility, 2 Day” value was 2Lyr; the “EECA compatibility, 7 Day” value was 2Lyr; the “EECA compatibility, Time 0” value is 2Lyr. Besides, the “Viscosity of solution with VEE” value in series [10] is given as 1.5. Further, in series [11], the Dissolution of polyisobutylene entry was “partially dissolve” and the “Viscosity of solution with IB” value is on record as 11. Further, the “VL (volatility)” value in series [4] is 4.3. Moreover, in [9] (rat, in vivo, po), the “TOX (toxicity, LD50)” value is given as 3200 mg/kg. Also, the “VP (vapor pressure)” value in [5] (at 20 ° C.) is 40@20 mmHg.

For the compound `CCCCCC` [Hexane], in series [7], the “EECA compatibility, 1 Day” value came out at 2Lyr; the “EECA compatibility, 2 Day” value came out at 2Lyr; the “EECA compatibility, 7 Day” value is 2Lyr; the “EECA compatibility, Time 0” value is 2Lyr. In series [10], the “Viscosity of solution with VEE” value was 0.9. Also, the “Viscosity of solution with IB” value in [11] is given as 7.7. Moreover, in [12], the PPM dye soluble turned out to be 500 PPM and the “Dye solubility, suitability” value is given as “insufficient dye solubility”. For the same compound, the “TOX (toxicity, LD50)” value in [9] (rat, in vivo, po) is 28710 mg/kg. The “VP (vapor pressure)” value in [5] (at 20 ° C.) is 132@20 mmHg.

Consider `C=CC(=C)C` [Isoprene], for which, in series [6] (time 0), the “BCA compatibility, Time 0” value is listed as “RX”. Also, the “Reaction with the cyanoacrylate esters” value in [8] was “apparent reactions”. In addition, the “VL (volatility)” value in series [4] was 28.6. Also, the “TOX (toxicity, LD50)” value in [9] (rat, in vivo, po) is 2100 mg/kg. Also, in series [5] (at 20 ° C.), the “VP (vapor pressure)” value was 560@20 mmHg.

Consider `C1CCOC1` [THF, tetrahydrofuran], for which, in series [1], the “OCA compatibility, 1 Day” value is “VV”; the “OCA compatibility, 2 Day” value is reported as “VV”; the “OCA compatibility, 7 Day” value is given as “VV”. Also, the “Viscosity of solution with MMA” value in [2] is listed as 5.3. The “Viscosity of solution with CAB” value in series [3] amounted to 3.1. Besides, in [4], the “VL (volatility)” value is given as 8. In series [5] (at 20 ° C.), the “VP (vapor pressure)” value was 129@20 mmHg.

Regarding `Cc1ccccc1` [Toluene], in [13], the “Viscosity of solution with Cap” value was 3.7. In [10], the “Viscosity of solution with VEE” value is 3.1. Further, in series [11], the “Viscosity of solution with IB” value is on record as 20. In addition, the “VL (volatility)” value in series [4] is given as 2.24. Also, the “VP (vapor pressure)” value in series [5] (at 20 ° C.) is recorded as 22@20 mmHg.
